# Laboratory results published in PubChem BioAssay AID1794807 (Yongcheng Song lab at Baylor College of Medicine, 2022).
# Activity calls are given as the source filed them.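 How the source made its calls: active means half-maximal effective concentration EC50 under 50 µM in the live-cell XTT test; inactive means the rest.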
# Test system: MV4;11 AML cells, XTT viability
# Test: MV4,11 leukemia cell growth inhibition, dose response, XTT absorbance (AID 1794807)
row,EC50,Structure (SMILES)
1,8.7 µM,O=C(NCC1CCNCC1)c1cc2ccc(-c3ccc(N4CCCC4)cc3)cc2s1
2,22 µM,O=C(NCC1CCNCC1)c1cc2cc(-c3ccc(N4CCCCC4)cc3)ccc2[nH]1
3,9.6 µM,O=C(NCC1CCNCC1)c1cc2ccc(-c3ccc(N4CCCCC4)cc3)cc2s1
4,8.2 µM,O=C(NCC1CCNCC1)c1cc2cc(-c3ccc(N4CCCCC4)cc3)ccc2s1
5,> 50 µM (inactive),O=C(NCC1CCNCC1)c1cc2cc(-c3cn[nH]c3)ccc2[nH]1
6,50 µM (inactive),NCc1ccc(-c2ccc3cc(C(=O)NCC4CCNCC4)oc3c2)cc1
7,> 50 µM (inactive),NC(=O)c1ccc(-c2ccc3cc(C(=O)NCC4CCNCC4)sc3c2)cc1
8,33 µM,O=C(NCC1CCNCC1)c1c[nH]c2cc(-c3ccc(N4CCCCC4)cc3)ccc12
9,21 µM,O=C(NCC1CCNCC1)c1coc2cc(-c3ccc(N4CCCCC4)cc3)ccc12
10,26 µM,O=C(NCC1CCNCC1)c1c[nH]c2cc(-c3ccc(N4CCCC4)cc3)ccc12
